From PMC9090415, “Discovery of small molecule inhibitors of Plasmodium falciparum apicoplast DNA polymerase” (Journal of Enzyme Inhibition and Medicinal Chemistry, 2022)

Molecular target: P. falciparum apicoplast DNA polymerase (Pf-apPOL) (Plasmodium falciparum, UniProt Q8ILY1)
Assay: Fluorescence-based high-throughput DNA polymerase assay (molecular beacon), primary screen and dose-response;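 for % inhibition ApPOL 90': test concentration in µM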;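 for % inhibition apPOL 180': test concentration in µM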
Assay type: biochemical
In short: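 Single-point screening used 10 µM compound with 20 nM polymerase, 20 nM hairpin substrate and 6 µM dNTPs for 90 min at 25 °C. Confirmatory titrations (2.5–80 µM) followed fluorescence at three times, and IC50 was derived from a fit including a cooperativity term n.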

P. falciparum apicoplast DNA polymerase (Pf-apPOL), sequence (Q8ILY1 entry or part of it): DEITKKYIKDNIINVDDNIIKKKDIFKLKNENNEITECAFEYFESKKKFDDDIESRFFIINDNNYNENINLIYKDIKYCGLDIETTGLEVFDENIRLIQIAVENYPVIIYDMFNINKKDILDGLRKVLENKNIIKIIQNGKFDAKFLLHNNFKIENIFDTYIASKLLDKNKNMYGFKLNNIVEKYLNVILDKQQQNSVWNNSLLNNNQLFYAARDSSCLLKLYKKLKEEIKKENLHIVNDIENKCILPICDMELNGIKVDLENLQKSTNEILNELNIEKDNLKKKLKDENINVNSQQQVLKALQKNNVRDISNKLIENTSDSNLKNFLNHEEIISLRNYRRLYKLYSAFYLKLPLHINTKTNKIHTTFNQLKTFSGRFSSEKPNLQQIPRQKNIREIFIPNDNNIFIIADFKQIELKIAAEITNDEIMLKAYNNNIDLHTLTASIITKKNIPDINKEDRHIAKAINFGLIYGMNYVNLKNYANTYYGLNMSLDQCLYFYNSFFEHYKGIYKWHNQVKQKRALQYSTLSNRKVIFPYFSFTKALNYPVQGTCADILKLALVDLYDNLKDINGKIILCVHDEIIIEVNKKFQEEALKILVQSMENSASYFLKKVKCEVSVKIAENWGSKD

## Cn1nc(C(=O)N2CCc3c(nc4cc(-c5ccccc5)[nH]n4c3=O)C2)c2ccccc21 [Molecule 18, O=c1c2CCN(Cc2nc2n1[nH]c(c2)c1ccccc1)C(=O)c1nn(c2c1cccc2)C]
186 hits, value of the hit list (primary screen); unit not given; 90 min, 10 µM
  DNA Pol: 46
DRC-1; 10'; concentration 2.5
  % inhibition Apo pol 10': 9%
DRC-1; 10'; concentration 5
  % inhibition Apo pol 10': 28%
DRC-1; 10'; concentration 10
  % inhibition Apo pol 10': 66%
DRC-1; 10'; concentration 20
  % inhibition Apo pol 10': 74%
DRC-1; 10'; concentration 40
  % inhibition Apo pol 10': 72%
DRC-1; 10'; concentration 80
  % inhibition Apo pol 10': 55%
DRC-1; 90'; concentration 2.5
  % inhibition Apol 90': 1.64%
DRC-1; 90'; concentration 5
  % inhibition Apol 90': 16%
DRC-1; 90'; concentration 10
  % inhibition Apol 90': 49%
DRC-1; 90'; concentration 20
  % inhibition Apol 90': 59%
DRC-1; 90'; concentration 40
  % inhibition Apol 90': 58%
DRC-1; 90'; concentration 80
  % inhibition Apol 90': 54%
DRC-1; 180'; concentration 2.5
  % inhibition apPOL 180': -3.8%
DRC-1; 180'; concentration 5
  % inhibition apPOL 180': 6%
DRC-1; 180'; concentration 10
  % inhibition apPOL 180': 33%
DRC-1; 180'; concentration 20
  % inhibition apPOL 180': 39%
DRC-1; 180'; concentration 40
  % inhibition apPOL 180': 34%
DRC-1; 180'; concentration 80
  % inhibition apPOL 180': 34%
DRC-2, 5', concentration 2.5
  % inhibition Apo pol 5': 5.33%
DRC-2, 5', concentration 5
  % inhibition Apo pol 5': 20%
DRC-2, 5', concentration 10
  % inhibition Apo pol 5': 36%
DRC-2, 5', concentration 20
  % inhibition Apo pol 5': 45%
DRC-2, 5', concentration 40
  % inhibition Apo pol 5': 43%
DRC-2, 5', concentration 80
  % inhibition Apo pol 5': 30%
DRC-2, 40', concentration 2.5
  % inhibition Apol 40': 4%
DRC-2, 40', concentration 5
  % inhibition Apol 40': 23%
DRC-2, 40', concentration 10
  % inhibition Apol 40': 40%
DRC-2, 40', concentration 20
  % inhibition Apol 40': 54%
DRC-2, 40', concentration 40
  % inhibition Apol 40': 56%
DRC-2, 40', concentration 80
  % inhibition Apol 40': 47%
DRC-2, 90', concentration 2.5
  % inhibition ApPOL 90': 4.38%
DRC-2, 90', concentration 5
  % inhibition ApPOL 90': 23%
DRC-2, 90', concentration 10
  % inhibition ApPOL 90': 39%
DRC-2, 90', concentration 20
  % inhibition ApPOL 90': 54%
DRC-2, 90', concentration 40
  % inhibition ApPOL 90': 55%
DRC-2, 90', concentration 80
  % inhibition ApPOL 90': 48%
DRC-2, 180', concentration 2.5
  % inhibition apPOL 180': 0.809%
DRC-2, 180', concentration 5
  % inhibition apPOL 180': 16%
DRC-2, 180', concentration 10
  % inhibition apPOL 180': 29%
DRC-2, 180', concentration 20
  % inhibition apPOL 180': 45%
DRC-2, 180', concentration 40
  % inhibition apPOL 180': 45%
DRC-2, 180', concentration 80
  % inhibition apPOL 180': 37%
DRC-2; 5'; concentration 20
  % inhibition Apo pol 5': 45%
DRC-2; 40'; concentration 5
  % inhibition Apol 40': 23%
DRC-2; 40'; concentration 20
  % inhibition Apol 40': 54%
DRC-2; 90'; concentration 5
  % inhibition ApPOL 90': 23%
DRC-2; 90'; concentration 10
  % inhibition ApPOL 90': 39%
DRC-2; 90'; concentration 20
  % inhibition ApPOL 90': 54%
DRC-2; 90'; concentration 40
  % inhibition ApPOL 90': 55%
DRC-2; 180'; concentration 5
  % inhibition apPOL 180': 16%
DRC-2; 180'; concentration 20
  % inhibition apPOL 180': 45%
DRC-2; 180'; concentration 40
  % inhibition apPOL 180': 45%
First dose-response; 10'; concentration 80
  % inhibition Apo pol 10': 55%
First dose-response; 90'; concentration 5
  % inhibition Apol 90': 16%
First dose-response; 90'; concentration 80
  % inhibition Apol 90': 54%
First dose-response; 180'; concentration 20
  % inhibition apPOL 180': 39%
First dose-response; 180'; concentration 40
  % inhibition apPOL 180': 34%
First dose-response; 180'; concentration 80
  % inhibition apPOL 180': 34%
Primary screen value, 'DNA Pol' only; 90 min, 10 µM
  DNA Pol: 46

## Cc1ccnc(NS(=O)(=O)c2ccc(-n3cccc3)cc2)n1 [KU0034899]
DRC-1; concentration 2.5; 10'
  % inhibition Apo pol 10': 6.567%
DRC-1; concentration 2.5; 90'
  % inhibition Apol 90': 1.285%
DRC-1; concentration 2.5; 180'
  % inhibition apPOL 180': -4.513%
DRC-1; concentration 5; 10'
  % inhibition Apo pol 10': 25.8281%
DRC-1; concentration 5; 90'
  % inhibition Apol 90': 11.3898%
DRC-1; concentration 5; 180'
  % inhibition apPOL 180': 1.685%
DRC-1; concentration 10; 10'
  % inhibition Apo pol 10': 43.5691%
DRC-1; concentration 10; 90'
  % inhibition Apol 90': 23.2373%
DRC-1; concentration 10; 180'
  % inhibition apPOL 180': 9.9045%
DRC-1; concentration 20; 10'
  % inhibition Apo pol 10': 72.9985%
DRC-1; concentration 20; 90'
  % inhibition Apol 90': 50.5873%
DRC-1; concentration 20; 180'
  % inhibition apPOL 180': 29.9217%
DRC-1; concentration 40; 10'
  % inhibition Apo pol 10': 90.805%
DRC-1; concentration 40; 90'
  % inhibition Apol 90': 80.4805%
DRC-1; concentration 40; 180'
  % inhibition apPOL 180': 67.6388%
DRC-1; concentration 80 (unit not given); 10'
  % inhibition Apo pol 10': 93.2113%
DRC-1; concentration 80; 90'
  % inhibition Apol 90': 92.1996%
DRC-1; concentration 80; 180'
  % inhibition apPOL 180': 89.3134%
DRC-2; 40'; concentration 80
  % inhibition Apol 40': 59%
DRC-2; 90'; concentration 20
  % inhibition ApPOL 90': 59%
DRC-2; concentration 2.5; 5'
  % inhibition Apo pol 5': 26%
DRC-2; concentration 2.5; 40'
  % inhibition Apol 40': 31%
DRC-2; concentration 2.5; 90'
  % inhibition ApPOL 90': 29%
DRC-2; concentration 2.5; 180'
  % inhibition apPOL 180': 19%
DRC-2; concentration 5; 5'
  % inhibition Apo pol 5': 23%
DRC-2; concentration 5; 40'
  % inhibition Apol 40': 20%
DRC-2; concentration 5; 90'
  % inhibition ApPOL 90': 14%
DRC-2; concentration 5; 180'
  % inhibition apPOL 180': 0.78%
DRC-2; concentration 10; 5'
  % inhibition Apo pol 5': 41%
DRC-2; concentration 10; 40'
  % inhibition Apol 40': 42%
DRC-2; concentration 10; 90'
  % inhibition ApPOL 90': 37%
DRC-2; concentration 10; 180'
  % inhibition apPOL 180': 21%
DRC-2; concentration 20; 5'
  % inhibition Apo pol 5': 49%
DRC-2; concentration 20; 40'
  % inhibition Apol 40': 62%
DRC-2; concentration 20; 90'
  % inhibition ApPOL 90': 59%
DRC-2; concentration 20; 180'
  % inhibition apPOL 180': 48%
DRC-2; concentration 40; 5'
  % inhibition Apo pol 5': 52%
DRC-2; concentration 40; 40'
  % inhibition Apol 40': 73%
DRC-2; concentration 40; 90'
  % inhibition ApPOL 90': 75%
DRC-2; concentration 40; 180'
  % inhibition apPOL 180': 74%
DRC-2; concentration 80; 5'
  % inhibition Apo pol 5': 17%
DRC-2; concentration 80; 40'
  % inhibition Apol 40': 59%
DRC-2; concentration 80; 90'
  % inhibition ApPOL 90': 67%
DRC-2; concentration 80; 180'
  % inhibition apPOL 180': 76%
Primary screen value of the 186 hits; unit not given; 90 min, 10 µM
  DNA Pol: 40
Primary screen value; head prints only 'DNA Pol'; 90 min, 10 µM
  DNA Pol: 40

## O=C(Nc1ncc([N+](=O)[O-])s1)c1ccc2c(c1)C(=O)N(N1C(=O)c3ccccc3C1=O)C2=O [KU0026378]
'DNA Pol'; screening value, unit not given; 90 min, 10 µM
  DNA Pol: 40
DRC-1; 10'; concentration 2.5
  % inhibition Apo pol 10': 7.75%
DRC-1; 10'; concentration 5
  % inhibition Apo pol 10': 18.061%
DRC-1; 10'; concentration 10
  % inhibition Apo pol 10': 26.4428%
DRC-1; 10'; concentration 20
  % inhibition Apo pol 10': 47.1491%
DRC-1; 10'; concentration 40
  % inhibition Apo pol 10': 69.5136%
DRC-1; 10'; concentration 80
  % inhibition Apo pol 10': 81.7904%
DRC-1; 90'; concentration 2.5
  % inhibition Apol 90': 0.8654%
DRC-1; 90'; concentration 5
  % inhibition Apol 90': 10.2523%
DRC-1; 90'; concentration 10
  % inhibition Apol 90': 17.1111%
DRC-1; 90'; concentration 20
  % inhibition Apol 90': 31.377%
DRC-1; 90'; concentration 40
  % inhibition Apol 90': 49.9666%
DRC-1; 90'; concentration 80
  % inhibition Apol 90': 63.8905%
DRC-1; 180'; concentration 2.5
  % inhibition apPOL 180': -2.09%
DRC-1; 180'; concentration 5
  % inhibition apPOL 180': 6.201%
DRC-1; 180'; concentration 10
  % inhibition apPOL 180': 13.1954%
DRC-1; 180'; concentration 20
  % inhibition apPOL 180': 24.5599%
DRC-1; 180'; concentration 40
  % inhibition apPOL 180': 40.1737%
DRC-1; 180'; concentration 80
  % inhibition apPOL 180': 53.133%
DRC-2, 5', concentration 2.5
  % inhibition Apo pol 5': 8%
DRC-2, 5', concentration 5
  % inhibition Apo pol 5': 8.46%
DRC-2, 5', concentration 10
  % inhibition Apo pol 5': 25%
DRC-2, 5', concentration 20
  % inhibition Apo pol 5': 36%
DRC-2, 5', concentration 40
  % inhibition Apo pol 5': 51%
DRC-2, 5', concentration 80
  % inhibition Apo pol 5': 55%
DRC-2, 40', concentration 2.5
  % inhibition Apol 40': 9%
DRC-2, 40', concentration 5
  % inhibition Apol 40': 9%
DRC-2, 40', concentration 10
  % inhibition Apol 40': 26%
DRC-2, 40', concentration 20
  % inhibition Apol 40': 40%
DRC-2, 40', concentration 40
  % inhibition Apol 40': 62%
DRC-2, 40', concentration 80
  % inhibition Apol 40': 73%
DRC-2, 90', concentration 2.5
  % inhibition ApPOL 90': 8%
DRC-2, 90', concentration 5
  % inhibition ApPOL 90': 9%
DRC-2, 90', concentration 10
  % inhibition ApPOL 90': 26%
DRC-2, 90', concentration 20
  % inhibition ApPOL 90': 39%
DRC-2, 90', concentration 40
  % inhibition ApPOL 90': 63%
DRC-2, 90', concentration 80
  % inhibition ApPOL 90': 75%
DRC-2, 180', concentration 2.5
  % inhibition apPOL 180': 6%
DRC-2, 180', concentration 5
  % inhibition apPOL 180': 9%
DRC-2, 180', concentration 10
  % inhibition apPOL 180': 24%
DRC-2, 180', concentration 20
  % inhibition apPOL 180': 36%
DRC-2, 180', concentration 40
  % inhibition apPOL 180': 59%
DRC-2, 180', concentration 80
  % inhibition apPOL 180': 74%
Conc 2.5 (unit not given); 5'; DRC-2
  % inhibition Apo pol 5': 8%
Conc 2.5 (unit not given); 40'; DRC-2
  % inhibition Apol 40': 9%
Conc 2.5 (unit not given); 90'; DRC-2
  % inhibition ApPOL 90': 8%
Conc 5 (unit not given); 40'; DRC-2
  % inhibition Apol 40': 9%
Conc 5 (unit not given); 90'; DRC-2
  % inhibition ApPOL 90': 9%
Conc 5 (unit not given); 180'; DRC-2
  % inhibition apPOL 180': 9%
Conc 10 (unit not given); 40'; DRC-2
  % inhibition Apol 40': 26%
Conc 10 (unit not given); 90'; DRC-2
  % inhibition ApPOL 90': 26%
Conc 20 (unit not given); 5'; DRC-2
  % inhibition Apo pol 5': 36%
Conc 20 (unit not given); 180'; DRC-2
  % inhibition apPOL 180': 36%
Primary screen hit value, DNA Pol (186 hits); 90 min, 10 µM
  DNA Pol: 40

## CCCCOC(=O)CCCCCN1C(=O)C(=Cc2ccc(OC)cc2)SC1=S [Molecule 75]
Supplemental file 2, sheet IC50 nontoxic compounds; Pf-apPOL
  IC50: 56.7 µM
